Laboratory results reported in patent publication US4393210A, “1(2H)-Isoquinolone compounds and acid addition salts thereof” (Seiyaku Co., Ltd., priority 1980, dated 1983).
Where a name gives a salt, the structure may show the parent alone.

How the values were obtained:
gastric secretion = test: Gastric secretion inhibitory activity, pylorus ligation; type: in vivo, Wister male rats; conditions: for pH Value (gastric juice) / Amount of Gastric Juice / Amount of Output Secretion: 4 hours, n=10; for pH Value (gastric juice): control 1.71 ± 0.11; for Amount of Gastric Juice: control 2.51 ± 0.32; for Amount of Gastric Juice / Amount of Output Secretion: **p < 0.01; for Amount of Output Secretion: control 184 ± 27.2; for effect on volume of gastric juice, acid secretion and pH value: Table 2, 100 mg/kg
Procedure: The pylorus of Wister male rats (body weight, 180 to 200 g) fasted for 24 hours was ligated under ether anesthesia and, immediately thereafter, the test compound was administered into the duodenum. Four hours after the administration, the stomach was extracted and gastric juice was collected and centrifuged at 3,000 r.p.m. for 15 minutes. The volume of gastric juice, the pH value and the amount of output secretion were then determined with respect to the supernatant.

[1] = test system: ulcer generation caused by water-dipping restriction stress; test: Anti-ulcer activity, stress ulcer (water-dipping restriction stress); type: in vivo, Wister male rats; conditions: for Percent Inhibition (stress ulcer) / Ulcerous Index: oral; for Ulcerous Index: n=6, control 75.8
Procedure: The test compound was administered orally to Wister male rats (body weight, 200 to 230 g) and then the rats were tied up with a steel wire and dipped in water at 23° C. in a tank to the level of the xiphisternum of rats. After allowing the rats to stand for 7 hours in water, the rats were sacrificed and the stomach was extracted. 10 ml of a 1% formalin solution was injected into the stomach cavity and the stomach was dipped in a 1% formalin solution for 15 minutes to semi-harden the stomach. The stomach was excised along the greater curvature thereof and the ulcer generated in the portion of corpus ventriculi was observed.

[2] = test system: pain reaction induced by acetic acid injection; test: Analgesic activity, acetic acid stretching method (Koster et al); type: in vivo, ddy male mice; conditions: oral; for Number of Stretching: n=8, control 36.5 ± 6.5
Procedure: According to the acetic acid stretching method described by Koster et al [Fed. Pro., 18, 412 (1959)], Compound A was administered orally to ddy male mice (body weight, 20 to 25 g) fasted overnight before test. One hour after administration of Compound A, a 0.6% aqueous acetic acid solution was administered intraperitoneally at a dose of 0.35 ml per mouse and the stretching of the mice was observed 10 minutes after the administration of the acetic acid solution for a period of 10 minutes, and the percent inhibition was calculated.

[3] = test system: histamine-induced contraction, guinea pig ileum; test: Anti-histamine activity, histamine-induced contraction of extracted ileum (Magnus tube); conditions: 31° C.; for shift of histamine-induced contraction curve: treatment 30 seconds before inducing contraction; for anti-histamine activity: guinea pig ileum
Procedure: (§1) The ileum of guinea pig (body weight, 300 to 400 g) was extracted and suspended in a Magnus tobe containing Tyrode's solution (saturated with oxygen) at 31° C. and the inhibitory activity of the test compounds on the contraction induced by administration of histamine or acetylchloline was determined. The treatment with the test compounds was conducted 30 seconds before inducing the contraction.

[4] = test system: contraction induced by acetylchloline, ileum of guinea pig; test: Anti-cholinergic activity, acetylcholine-induced contraction of extracted ileum (Magnus tube); conditions: 31° C.
Procedure: as §1

Acute toxicity = conditions: mouse, in vivo; mice fasted overnight, observed for 7 days; route not stated
Procedure: The test compound was administered to ddy male mice (body weight, 20 to 25 g) fasted overnight before administration.

[5] = test system: indomethacin-induced ulcer; test: Anti-ulcer activity, indomethacin-induced ulcer; type: in vivo, Wister male rats; conditions: for Percent Inhibition (indomethacin ulcer) / Ulcerous Index: oral; for Ulcerous Index: control 15.4, indomethacin 20 mg/kg s.c.
Procedure: A suspension of indomechacin in 0.25% CMC was administered subcutaneously at a dose of 20 mg/kg to Wister male rats (body weight, 125 to 150 g) fasted for 24 hours. The test compound was administered orally 30 minutes before the administration of indomethacin. Seven hours after the administration of indomethacin, the rats were sacrificed by dislocation of neck, and the stomach was extracted. 7.5 ml of 1% formalin solution was injected into the stomach cavity, and the stomack was hardened. The linear-type ulcer generated in the mucous membrane of the stomach was then observed.

[6] = test system: decrease in body temperature induced by administration of reserpine; test: Anti-reserpine (anti-depression) activity, rectal temperature; type: in vivo, ddy male mice; conditions: oral, 50 and 100 mg/kg; reserpine 2 mg/kg s.c. twice
Procedure: Reserpine was administered subcutaneously to ddy male mice (body weight, 25 to 30 g) at a dose of 2 mg/kg and, after fasting for 18 hours, reserpine was again administered subcutaneously at a dose of 2 mg/kg. Five hours after the second administration of reserpine, the mice which indicated a constant decrease in body temperature were selected and administered orally with the test compound (Compound C), followed by measuring the rectal temperature of the mice at one hour intervals.
In this experiment, Imipramine (10,11-dihydro-N,N-dimethyl-5H-dibenz[b,f]azepine-5-propanamine) and Amitriptyline [3-(10,11-dihydro-5H-dibenzo[a,d]-cyclohepten-5-ylidene)-N,N-dimethyl-1-propanamine] were used as typical examples of known compounds for comparison and the results obtained with these compounds are also shown in FIG. 1(a).

[7] = 100 mg/kg into the duodenum, *p < 0.05

CN1[C@@H]2CC[C@H]1C[C@@H](OC(=O)C(CO)c1ccccc1)C2 (stereo partly drawn) [Atropine, reference compound]
pH Value (gastric juice) (gastric secretion; 5 mg/kg into the duodenum): 2.22 ± 0.25
Amount of Gastric Juice (gastric secretion; 5 mg/kg into the duodenum): 0.90 ± 0.09 mL
Amount of Output Secretion (gastric secretion; 5 mg/kg into the duodenum): 57 ± 6.0 μ Eq.
Percent Inhibition (stress ulcer) ([1]; 5 mg/kg): 93.0%
Ulcerous Index ([1]; 5 mg/kg): 5.3 mm

CN(C)CCCn1cc(-c2ccccc2)c2ccccc2c1=O [Compound A, 2-(3-N,N-dimethylaminopropyl)-4-phenyl-1(2H)-isoquinolone tartrate]
Number of Stretching ([2]; 25 mg/kg): 33.8 ± 8.2
Percent Inhibition (stretching) ([2]; 50 mg/kg): 53.7%
Number of Stretching ([2]; 50 mg/kg, *p < 0.05): 16.9 ± 4.8
Percent Inhibition (stretching) ([2]; 100 mg/kg): 72.6%
Number of Stretching ([2]; 100 mg/kg, **p < 0.01): 10.0 ± 2.8
inhibition of the pain reaction induced by acetic acid injection ([2]; 50 and 100 mg/kg): inhibited the pain reaction induced by acetic acid injection
shift of histamine-induced contraction curve [3]: shift the hitamine-induced contraction curve determined in guinea pig ileum to the right direction on the figures in parallel
anti-histamine activity [3]: possess a specific anti-histamine activity
anti-cholinergic activity [4]: non-specific anti-cholinergic activity
pH Value (gastric juice) (gastric secretion; [7]): 3.06 ± 0.44
Amount of Gastric Juice (gastric secretion; 100 mg/kg into the duodenum): 0.53 ± 0.12 mL
Amount of Output Secretion (gastric secretion; 100 mg/kg into the duodenum): 22 ± 5.9 μ Eq.
effect on volume of gastric juice, acid secretion and pH value (gastric secretion): reduce the volume of gastric juice and the acid secretion and increase the pH value
inhibition of ulcer generation caused by water-dipping restriction stress ([1]; dose of 25, 50 and 100 mg): inhibits the ulcer generation caused by water-dipping restriction stress
Percent Inhibition (stress ulcer) ([1]; 25 mg/kg): 23.5%
Ulcerous Index ([1]; 25 mg/kg): 58.0 mm
Percent Inhibition (stress ulcer) ([1]; 50 mg/kg): 36.4%
Ulcerous Index ([1]; 50 mg/kg): 48.2 mm
Percent Inhibition (stress ulcer) ([1]; 100 mg/kg): 66.0%
Ulcerous Index ([1]; 100 mg/kg): 25.3 mm
LD50 at 168 h (Acute toxicity): 662 mg/kg

CN(C)CCn1cc(-c2ccccc2)c2ccccc2c1=O [Compound B, 2-(2-N,N-dimethylaminoethyl)-4-phenyl-1(2H)-isoquinolone hydrochloride]
shift of histamine-induced contraction curve [3]: shift the hitamine-induced contraction curve determined in guinea pig ileum to the right direction on the figures in parallel
anti-histamine activity [3]: possess a specific anti-histamine activity
anti-cholinergic activity [4]: non-specific anti-cholinergic activity
inhibition of indomethacin-induced ulcer ([5]; 50 mg/kg): inhibit the indomethacin-induced ulcer
Percent Inhibition (indomethacin ulcer) ([5]; 50 mg/kg): 61.0%
Ulcerous Index ([5]; 50 mg/kg, n=8): 6.0 mm
LD50 at 168 h (Acute toxicity): 195 mg/kg

CN(C)CCCn1cc(C#N)c2ccccc2c1=O [Compound C, 4-cyano-2-(3-N,N-dimethylaminopropyl)-1(2H)-isoquinolone tartrate 1/2 hydrate]
rectal temperature decreased by pretreatment with reserpine [6]: increases at a dose of 50 and 100 mg/kg significantly the rectal temperature
shift of histamine-induced contraction curve [3]: shift the hitamine-induced contraction curve determined in guinea pig ileum to the right direction on the figures in parallel
anti-histamine activity [3]: possess a specific anti-histamine activity
pH Value (gastric juice) (gastric secretion; [7]): 1.88 ± 0.10
Amount of Gastric Juice (gastric secretion; 100 mg/kg into the duodenum): 1.85 ± 0.35 mL
Amount of Output Secretion (gastric secretion; 100 mg/kg into the duodenum): 72 ± 5.3 μ Eq.
effect on volume of gastric juice, acid secretion and pH value (gastric secretion): reduce the volume of gastric juice and the acid secretion and increase the pH value
LD50 at 168 h (Acute toxicity): 699 mg/kg

CC(Cn1cc(-c2ccccc2)c2ccccc2c1=O)N(C)C (stereo not drawn) [Compound D, 2-(2-N,N-dimethylaminopropyl)-4-phenyl-1(2H)-isoquinolone maleate]
inhibition of indomethacin-induced ulcer ([5]; 50 mg/kg): inhibit the indomethacin-induced ulcer
Percent Inhibition (indomethacin ulcer) ([5]; 50 mg/kg): 73.0%
Ulcerous Index ([5]; 50 mg/kg, n=8): 4.1 mm
LD50 at 168 h (Acute toxicity): 505 mg/kg

CCN1CCCC1CNC(=O)c1cc(S(N)(=O)=O)ccc1OC (stereo not drawn) [Sulpiride, 5(aminosulfonyl)-N--(1ethyl-2-pyrrolidinyl)-methyl 2-methoxybenzamide, reference compound]
Ulcerous Index ([1]; 100 mg/kg): 71.0 mm

basic aluminum sucrose sulfate [Sucralfate, reference compound]
Percent Inhibition (indomethacin ulcer) ([5]; 300 mg/kg): 81.1%
Ulcerous Index ([5]; 300 mg/kg): 2.9 mm
